ChEMBL document CHEMBL3991601, “The target landscape of clinical kinase drugs” (Science, 2017)
The source made the active and inactive calls. For most assays here, no stated cut-off is given here; in the data, actives have a measured Kd and inactives only a lower limit.

Legend:
[1] = molecular target: T1, Serine/threonine-protein kinase 3 (Homo sapiens, UniProt Q13188)
T1 sequence (Q13188 whole entry): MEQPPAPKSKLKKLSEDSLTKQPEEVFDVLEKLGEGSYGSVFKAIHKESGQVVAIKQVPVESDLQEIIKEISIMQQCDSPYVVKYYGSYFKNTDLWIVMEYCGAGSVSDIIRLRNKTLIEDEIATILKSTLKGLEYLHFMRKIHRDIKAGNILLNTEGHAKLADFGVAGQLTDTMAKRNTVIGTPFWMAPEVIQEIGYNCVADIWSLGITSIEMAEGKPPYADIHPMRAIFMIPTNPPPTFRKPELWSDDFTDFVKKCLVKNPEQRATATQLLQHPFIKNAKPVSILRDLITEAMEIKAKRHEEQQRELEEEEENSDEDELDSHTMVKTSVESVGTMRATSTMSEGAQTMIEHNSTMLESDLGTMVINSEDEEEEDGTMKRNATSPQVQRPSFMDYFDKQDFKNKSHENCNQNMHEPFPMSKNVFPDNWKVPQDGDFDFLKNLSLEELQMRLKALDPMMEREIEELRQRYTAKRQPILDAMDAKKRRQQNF

[2] = molecular target: T2, Ribosyldihydronicotinamide dehydrogenase [quinone] (Homo sapiens, UniProt P16083)
T2 sequence (P16083 whole entry): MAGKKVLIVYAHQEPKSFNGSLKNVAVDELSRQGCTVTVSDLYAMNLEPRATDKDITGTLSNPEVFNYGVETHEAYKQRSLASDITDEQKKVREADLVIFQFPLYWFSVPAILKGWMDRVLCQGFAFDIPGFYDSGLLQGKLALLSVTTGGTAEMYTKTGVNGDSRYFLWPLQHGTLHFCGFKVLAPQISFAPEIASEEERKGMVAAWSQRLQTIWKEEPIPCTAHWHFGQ

[3] = molecular target: T3, Bone morphogenetic protein receptor type-2 (Homo sapiens, UniProt Q13873)
T3 sequence (Q13873 whole entry): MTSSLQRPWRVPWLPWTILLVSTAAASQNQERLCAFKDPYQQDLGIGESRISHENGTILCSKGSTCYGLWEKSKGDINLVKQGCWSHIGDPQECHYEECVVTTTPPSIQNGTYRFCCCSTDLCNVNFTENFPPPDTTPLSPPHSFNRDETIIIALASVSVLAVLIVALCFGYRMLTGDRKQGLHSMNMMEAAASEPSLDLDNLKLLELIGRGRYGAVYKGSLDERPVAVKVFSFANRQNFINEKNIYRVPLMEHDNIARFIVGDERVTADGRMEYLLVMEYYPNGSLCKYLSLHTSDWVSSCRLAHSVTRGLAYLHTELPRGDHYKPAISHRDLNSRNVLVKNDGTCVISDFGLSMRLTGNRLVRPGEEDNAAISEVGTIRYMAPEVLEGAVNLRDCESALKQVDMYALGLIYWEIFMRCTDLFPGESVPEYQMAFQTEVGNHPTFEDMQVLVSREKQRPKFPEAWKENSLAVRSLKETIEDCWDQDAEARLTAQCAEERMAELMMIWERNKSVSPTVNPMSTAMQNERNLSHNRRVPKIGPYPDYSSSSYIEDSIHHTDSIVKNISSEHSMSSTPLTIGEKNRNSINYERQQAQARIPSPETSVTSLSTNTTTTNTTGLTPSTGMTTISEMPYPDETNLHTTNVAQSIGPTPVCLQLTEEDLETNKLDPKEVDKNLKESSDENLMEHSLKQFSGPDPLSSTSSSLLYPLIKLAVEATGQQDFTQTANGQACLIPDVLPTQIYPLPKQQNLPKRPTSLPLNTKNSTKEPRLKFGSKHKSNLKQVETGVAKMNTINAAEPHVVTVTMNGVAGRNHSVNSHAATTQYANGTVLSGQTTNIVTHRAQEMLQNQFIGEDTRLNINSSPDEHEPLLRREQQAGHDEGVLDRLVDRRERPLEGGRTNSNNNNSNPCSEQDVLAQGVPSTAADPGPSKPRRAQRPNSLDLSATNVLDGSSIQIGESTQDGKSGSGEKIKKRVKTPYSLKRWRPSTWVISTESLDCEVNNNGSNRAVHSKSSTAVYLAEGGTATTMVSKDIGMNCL

[4] = molecular target: T4, Scaffold protein ILK (Homo sapiens, UniProt Q13418)
T4 sequence (Q13418 whole entry): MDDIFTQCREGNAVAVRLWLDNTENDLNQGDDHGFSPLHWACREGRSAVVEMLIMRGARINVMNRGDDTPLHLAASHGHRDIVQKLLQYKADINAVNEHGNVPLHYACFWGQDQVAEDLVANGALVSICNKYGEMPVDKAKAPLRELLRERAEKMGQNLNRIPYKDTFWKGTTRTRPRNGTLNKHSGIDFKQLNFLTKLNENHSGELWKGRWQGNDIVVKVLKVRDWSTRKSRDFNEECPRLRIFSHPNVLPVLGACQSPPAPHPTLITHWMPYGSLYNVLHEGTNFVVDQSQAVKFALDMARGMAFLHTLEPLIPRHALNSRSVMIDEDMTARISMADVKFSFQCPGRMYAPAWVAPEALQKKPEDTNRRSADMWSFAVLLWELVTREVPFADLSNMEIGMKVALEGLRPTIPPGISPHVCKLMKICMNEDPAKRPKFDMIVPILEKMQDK

[5] = molecular target: T5, Serine/threonine-protein kinase Chk1 (Homo sapiens, UniProt O14757)
T5 sequence (O14757 whole entry): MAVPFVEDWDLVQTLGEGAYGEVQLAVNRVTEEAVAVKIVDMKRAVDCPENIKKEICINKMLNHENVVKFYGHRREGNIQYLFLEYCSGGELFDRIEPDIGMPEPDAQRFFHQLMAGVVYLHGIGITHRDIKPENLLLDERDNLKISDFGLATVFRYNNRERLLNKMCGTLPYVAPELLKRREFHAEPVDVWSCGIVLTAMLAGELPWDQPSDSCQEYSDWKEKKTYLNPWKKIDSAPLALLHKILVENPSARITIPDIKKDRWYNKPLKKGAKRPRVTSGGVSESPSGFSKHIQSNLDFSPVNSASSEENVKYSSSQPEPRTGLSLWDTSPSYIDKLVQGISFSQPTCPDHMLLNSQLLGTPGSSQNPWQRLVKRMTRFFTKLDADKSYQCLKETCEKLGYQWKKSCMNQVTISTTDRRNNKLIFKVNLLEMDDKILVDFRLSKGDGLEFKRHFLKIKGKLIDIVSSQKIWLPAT

[6] = molecular target: High affinity nerve growth factor receptor (Homo sapiens, UniProt P04629)
[7] = molecular target: Dual specificity testis-specific protein kinase 1 (Homo sapiens, UniProt Q15569)
[8] = molecular target: Tyrosine-protein kinase Fer (Homo sapiens, UniProt P16591)
[9] = molecular target: Elongation factor Tu, mitochondrial (Homo sapiens, UniProt P49411)

Tyrosine-protein kinase Fer, sequence (P16591 whole entry): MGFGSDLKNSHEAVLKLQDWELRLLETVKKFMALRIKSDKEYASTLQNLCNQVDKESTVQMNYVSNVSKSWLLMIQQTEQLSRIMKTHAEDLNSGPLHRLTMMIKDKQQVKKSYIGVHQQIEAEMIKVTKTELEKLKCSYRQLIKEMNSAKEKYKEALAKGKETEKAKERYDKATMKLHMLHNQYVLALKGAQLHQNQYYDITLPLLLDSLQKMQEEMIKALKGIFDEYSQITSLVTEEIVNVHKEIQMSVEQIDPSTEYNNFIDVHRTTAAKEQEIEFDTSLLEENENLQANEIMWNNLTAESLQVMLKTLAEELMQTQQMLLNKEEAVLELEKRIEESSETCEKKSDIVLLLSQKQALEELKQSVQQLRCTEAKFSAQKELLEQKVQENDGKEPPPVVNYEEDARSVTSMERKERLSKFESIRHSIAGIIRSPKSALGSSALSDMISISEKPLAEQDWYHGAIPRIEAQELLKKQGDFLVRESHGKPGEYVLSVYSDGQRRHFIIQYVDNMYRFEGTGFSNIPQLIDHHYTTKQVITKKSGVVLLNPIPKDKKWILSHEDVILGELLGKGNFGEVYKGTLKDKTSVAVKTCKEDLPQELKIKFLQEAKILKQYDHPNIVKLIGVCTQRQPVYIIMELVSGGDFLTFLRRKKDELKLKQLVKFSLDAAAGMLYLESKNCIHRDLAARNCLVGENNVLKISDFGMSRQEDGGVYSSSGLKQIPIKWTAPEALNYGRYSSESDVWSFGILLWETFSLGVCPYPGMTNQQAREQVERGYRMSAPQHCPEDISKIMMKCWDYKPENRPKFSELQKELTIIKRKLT
High affinity nerve growth factor receptor, sequence (P04629 whole entry): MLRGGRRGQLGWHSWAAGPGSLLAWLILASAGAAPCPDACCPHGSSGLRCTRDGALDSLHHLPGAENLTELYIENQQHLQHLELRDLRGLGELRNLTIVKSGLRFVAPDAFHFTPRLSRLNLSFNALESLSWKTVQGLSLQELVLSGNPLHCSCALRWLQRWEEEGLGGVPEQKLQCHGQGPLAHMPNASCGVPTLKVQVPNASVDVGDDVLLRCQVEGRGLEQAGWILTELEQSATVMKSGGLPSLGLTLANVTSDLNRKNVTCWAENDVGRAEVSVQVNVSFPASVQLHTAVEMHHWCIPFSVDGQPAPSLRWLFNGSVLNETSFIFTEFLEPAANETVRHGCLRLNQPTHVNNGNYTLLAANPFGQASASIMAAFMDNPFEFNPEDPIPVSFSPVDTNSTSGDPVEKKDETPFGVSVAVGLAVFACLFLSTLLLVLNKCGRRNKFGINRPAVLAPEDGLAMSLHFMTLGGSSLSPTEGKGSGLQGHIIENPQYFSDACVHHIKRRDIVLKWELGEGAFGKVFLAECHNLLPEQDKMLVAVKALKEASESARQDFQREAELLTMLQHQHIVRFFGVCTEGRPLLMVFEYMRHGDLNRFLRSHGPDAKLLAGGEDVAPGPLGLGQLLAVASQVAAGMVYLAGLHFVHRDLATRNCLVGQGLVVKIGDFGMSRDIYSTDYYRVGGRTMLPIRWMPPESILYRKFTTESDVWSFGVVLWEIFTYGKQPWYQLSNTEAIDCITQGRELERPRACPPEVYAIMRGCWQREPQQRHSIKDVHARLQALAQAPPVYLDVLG
Dual specificity testis-specific protein kinase 1, sequence (Q15569 whole entry): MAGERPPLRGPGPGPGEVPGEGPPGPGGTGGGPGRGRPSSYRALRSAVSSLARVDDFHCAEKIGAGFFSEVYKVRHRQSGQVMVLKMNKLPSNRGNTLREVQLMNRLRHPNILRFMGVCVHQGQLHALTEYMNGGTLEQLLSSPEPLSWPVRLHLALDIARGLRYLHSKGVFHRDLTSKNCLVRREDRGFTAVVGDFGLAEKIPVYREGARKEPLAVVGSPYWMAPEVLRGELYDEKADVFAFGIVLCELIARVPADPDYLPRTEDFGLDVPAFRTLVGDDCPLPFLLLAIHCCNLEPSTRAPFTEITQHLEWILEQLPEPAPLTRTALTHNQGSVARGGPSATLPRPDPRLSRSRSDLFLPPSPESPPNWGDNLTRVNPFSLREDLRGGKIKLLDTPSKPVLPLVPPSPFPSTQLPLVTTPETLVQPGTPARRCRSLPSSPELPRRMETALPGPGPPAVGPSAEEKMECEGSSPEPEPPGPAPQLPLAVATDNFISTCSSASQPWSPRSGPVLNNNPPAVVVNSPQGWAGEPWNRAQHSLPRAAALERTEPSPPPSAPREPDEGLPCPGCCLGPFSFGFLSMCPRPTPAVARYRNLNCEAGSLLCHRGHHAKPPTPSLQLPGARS

Row | Compound | Kd [1] | Kd [2] | Kd [3] | Kd [4] | Kd [5] | Kd [6] | Kd [7] | Kd [8] | Kd [9]
1 | CN1CCN(CCOc2cc(OC3CCOCC3)c3c(Nc4c(Cl)ccc5c4OCO5)ncnc3c2)CC1 [SARACATINIB] | > 30 µM (inactive) | > 30 µM (inactive) | > 30 µM (inactive) | > 30 µM (inactive) | > 30 µM (inactive) | > 30 µM (inactive) | > 30 µM (inactive) | > 30 µM (inactive) | > 30 µM (inactive)
2 | CO[C@H]1C[C@@H]2CC[C@@H](C)[C@@](O)(O2)C(=O)C(=O)N2CCCC[C@H]2C(=O)O[C@H]([C@H](C)C[C@@H]2CC[C@@H](O)[C@H](OC)C2)CC(=O)[C@H](C)/C=C(\C)[C@@H](O)[C@@H](OC)C(=O)[C@H](C)C[C@H](C)/C=C/C=C/C=C/1C [SIROLIMUS] | > 30 µM (inactive) | > 30 µM (inactive) | > 30 µM (inactive) | > 30 µM (inactive) | > 30 µM (inactive) | > 30 µM (inactive) | > 30 µM (inactive) | > 30 µM (inactive) | > 30 µM (inactive)
3 | CO[C@H]1C[C@@H]2CC[C@@H](C)[C@@](O)(O2)C(=O)C(=O)N2CCCC[C@H]2C(=O)O[C@H]([C@H](C)C[C@@H]2CC[C@@H](OC(=O)C(C)(CO)CO)[C@H](OC)C2)CC(=O)[C@H](C)/C=C(\C)[C@@H](O)[C@@H](OC)C(=O)[C@H](C)C[C@H](C)/C=C/C=C/C=C/1C [TEMSIROLIMUS] | > 30 µM (inactive) | > 30 µM (inactive) | > 30 µM (inactive) | > 30 µM (inactive) | > 30 µM (inactive) | > 30 µM (inactive) | > 30 µM (inactive) | > 30 µM (inactive) | > 30 µM (inactive)
4 | COc1cc2c(Nc3ccc(Cl)c(Cl)c3F)ncnc2cc1OC[C@@H]1C[C@@H]2CN(C)C[C@@H]2C1 [TESEVATINIB] | > 30 µM (inactive) | > 30 µM (inactive) | > 30 µM (inactive) | > 30 µM (inactive) | > 30 µM (inactive) | > 30 µM (inactive) | > 30 µM (inactive) | > 30 µM (inactive) | > 30 µM (inactive)
5 | O=C(Cc1ccc(-c2ccc(OCCN3CCOCC3)cc2)cn1)NCc1ccccc1 [TIRBANIBULIN] | > 30 µM (inactive) | > 30 µM (inactive) | > 30 µM (inactive) | > 30 µM (inactive) | > 30 µM (inactive) | > 30 µM (inactive) | > 30 µM (inactive) | > 30 µM (inactive) | > 30 µM (inactive)
6 | O=C1NC(=O)[C@@H](c2cn3c4c(cccc24)CCC3)[C@@H]1c1c[nH]c2ccccc12 [TIVANTINIB] | > 30 µM (inactive) | > 30 µM (inactive) | > 30 µM (inactive) | > 30 µM (inactive) | > 30 µM (inactive) | > 30 µM (inactive) | > 30 µM (inactive) | > 30 µM (inactive) | > 30 µM (inactive)
7 | C[C@@H](NC(=O)c1ncnc(N)c1Cl)c1ncc(C(=O)Nc2cc(C(F)(F)F)c(Cl)cn2)s1 [TOVORAFENIB] | > 30 µM (inactive) | > 30 µM (inactive) | > 30 µM (inactive) | > 30 µM (inactive) | > 30 µM (inactive) | > 30 µM (inactive) | > 30 µM (inactive) | > 30 µM (inactive) | > 30 µM (inactive)
8 | Cc1cc(Nc2ncnc3ccc(NC4=NC(C)(C)CO4)cc23)ccc1Oc1ccn2ncnc2c1 [TUCATINIB] | > 30 µM (inactive) | 2.46 µM (active) | > 30 µM (inactive) | > 30 µM (inactive) | > 30 µM (inactive) | > 30 µM (inactive) | > 30 µM (inactive) | > 30 µM (inactive) | > 30 µM (inactive)

Next, values leading:

Row | Kd [1] | Kd [2] | Kd [3] | Kd [4] | Kd [5] | Kd [6] | Kd [7] | Kd [8] | Kd [9] | Compound
9 | 2.76 µM (active) | 88.9 µM (active) | > 30 µM (inactive) | > 30 µM (inactive) | 1.75 µM (active) | 0.843 µM (active) | > 30 µM (inactive) | 0.574 µM (active) | > 30 µM (inactive) | CCS(=O)(=O)c1cccc(-c2cc(C(=O)NC3CCN(C)CC3)c(C)c3[nH]c4ncc(C)cc4c23)c1 [TAK-901]
10 | 0.462 µM (active) | > 30 µM (inactive) | > 30 µM (inactive) | > 30 µM (inactive) | > 30 µM (inactive) | 0.006 µM (active) | > 30 µM (inactive) | 0.105 µM (active) | > 30 µM (inactive) | CC(C)c1cc(CNc2nc(Nc3cc(C4CC4)[nH]n3)cc(N3CCN(C)CC3)n2)on1 [XL-228]
11 | > 30 µM (inactive) | > 30 µM (inactive) | > 30 µM (inactive) | > 30 µM (inactive) | > 30 µM (inactive) | > 30 µM (inactive) | > 30 µM (inactive) | > 30 µM (inactive) | > 30 µM (inactive) | C[C@@H](N)c1ccc(C(=O)Nc2ccnc3[nH]ccc23)cc1 [Y-39983]
